Experimental data from patent US20230027198A1 (The Rockefeller University, priority 2019, published 2023).

How the values were obtained:
tumor = conditions: preclinical studies in mice; cited from earlier work
[1] = target: T1, ENL YEATS domain (6×HIS ENL YEATS Domain) binding to H3K9cr peptide (Homo sapiens, UniProt Q03111); assay: TR-FRET ENL Screening Assay, FRET Assay Protocol 1; conditions: H3K9cr peptide (aa1-20)
T1 construct: aa1-150; EpiCypher, 15-0069; purchased EpiCypher 15-0069
T1 sequence (Q03111 1-150): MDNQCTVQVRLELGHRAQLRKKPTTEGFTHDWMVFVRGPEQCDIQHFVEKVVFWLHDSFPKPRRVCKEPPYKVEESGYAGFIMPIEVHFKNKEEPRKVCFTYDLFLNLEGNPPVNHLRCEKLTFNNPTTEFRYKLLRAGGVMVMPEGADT
Experimental: Compounds of the invention were dissolved in DMSO at a concentration of 3 mM with subsequent dilutions in assay buffer (50 mM HEPES PH7.0, 150 mM NaCl, 0.05% BSA, 0.2% Pluronic F-127) such that the assay contained 1% DMSO. […] Low control (LC) wells received 5 uL of assay buffer instead of ENL protein. […] Compound concentration response curves were performed in duplicate over the concentration range of 0.15 nM-30 uM. The response at each compound concentration minus the LC value was converted to percent inhibition of the vehicle control group response (HC-LC). The relationship between the % inhibition and the compound concentration was analyzed using a four parameter logistic equation to estimate lower and upper asymptotes, the compound concentration producing 50% inhibition (IC50 value) and the slope at the mid-point location.

MV4-11 cells = assay: Cell viability assay (CellTiter-Glo), 12 days; format: cell-based; conditions: Homo sapiens, readouts on days 4, 8 and 12, day not given
Experimental: Cell-based assays were used to assess the ability of test compounds to reduce cell viability in both MV4:11 (MLL-AF4 MLL) and K562 cells, which were cultured in Iscove's Modified Dulbecco's medium (Gibco, 12440061) containing […]. The assays were conducted over 12 days and the cells being split on days 4 and 8. Compound concentration response curves were performed in duplicate over the concentration range of 0.15 nM-30 uM. On day 0, the compounds or vehicle were plated in a 300 nL directly into 96 well cell culture plates (Corning, 3599) with 5000 cells/well in a volume of 100 uL. Blank wells received cell culture medium. Plates were incubated for 4 days at 37° C. with 5% CO2. On days 4 and day 8 the cells were split and incubated for a further 4 days whilst an aliquot of cells were taken for the CTG readout. For the cell splitting, 270 nL of compounds or DMSO was added to a new 96 well cell culture plate to which 90 uL of medium plus 10 uL of cells from the original assay plate (after mixing) or 100 uL of medium (Blank wells) was added. This was repeated on day 8.
Cell viability was assessed using the CellTiter-Glo® homogeneous luminescent assay kit (Promega, G9243), according to the manufacturer's instructions. This quantifies ATP, which indicates the presence of metabolically active cells. On days 4, 8 and 12, 20 ul of the remaining cell suspension was aspirated into 384-well plate (Corning 3570) to which an equal volume CellTiter-Glo reagent was. Plates were incubated for 10 minute incubation at RT prior to recording the luminescence signal using EnVision plate reader (PE, 2104). The resulting data were analyzed as follows:
Inhibition (%)=100%×(Lumvehicie−Lumsample)/(Lumvehicle−Lumblank)
where vehicle are cells treated with 0.3% DMSO, Blank is culture medium. IC50 determinations were calculated by fitting the curve using XLfit (v5.3.1.3): Y=Bottom+(Top−Bottom)/(1+10^((Log IC50−X)*HillSlope)).

[2] = tested on: myeloma tumors; leukemic engraftment of patient-derived primary samples; conditions: mice, cited from earlier work
[3] = tested on: BET family of bromodomain proteins; conditions: cited from earlier work
acute myeloid leukemia = conditions: cited from earlier work

| Structure (SMILES) | IC50 [1] | IC50 (MV4-11 cells) | other results |
| --- | --- | --- | --- |
| CCn1nc(C2CC2)cc1Nc1nc(C(=O)NCCCOCCOCCOCCCNc2cccc3c2C(=O)N(C2CCC(=O)NC2=O)C3=O)nc2[nH]c3cc(-c4c(C)noc4C)c(OC)cc3c12 (stereo not shown) [BET-d246] | – | – | anti-tumor activity (tumor): strong anti-tumor activity |
| COc1cc2ccc(C(=O)Nc3cc4[nH]c(CN5CCC[C@@H]5C)cc4cn3)cc2cn1 [Example 88] | 141 nM | 0.623 µM | – |
| C[C@H]1CCCN1Cc1cc2cnc(NC(=O)c3ccc4c(c3)[nH]c(=O)n4C)cc2[nH]1 [Example 93] | 97 nM | 0.181 µM | – |
| CNc1cc2ccc(C(=O)Nc3cc4[nH]c(CN5CCC[C@@H]5C)cc4cn3)cc2cn1 [Example 97] | 572 nM | 0.321 µM | – |
| C[C@H]1CCCN1Cc1cc2cnc(NC(=O)c3ccc4c(c3)CNC(=O)N4C)cc2[nH]1 [Example 98] | 330 nM | 1.06 µM | – |
| Cc1ncc2cc(C(=O)Nc3cc4[nH]c(CN5CCC[C@@H]5C)cc4cn3)ccn12 [Example 99, 3-methyl-N-(2-[[(2S)-2-methylpyrrolidin-1-yl]methyl]-1H-pyrrolo[3,2-c]pyridin-6-yl)imidazo[1,5-a]pyridine-7-carboxamide] | 186 nM | 0.468 µM | – |
| Cn1ncc2ccc(C(=O)Nc3cc4[nH]c(CN5CC6(CCOCC6)C5)cc4cn3)cc21 [Example 104] | 210 nM | 0.22 µM | – |
| COc1cc2c(cc1-c1c(C)noc1C)ncc1[nH]c(=O)n([C@H](C)c3ccccn3)c12 [I-BET 151] | – | – | leukemic engraftment and disease burden ([2]; in vivo, patient-derived primary samples): impairs the leukemic engraftment of patient-derived primary samples and lowers the disease burden; effect on myeloma tumors [2]: reduced myeloma tumors |
| Cc1sc2c(c1C)C(c1ccc(Cl)cc1)=N[C@@H](CC(=O)OC(C)(C)C)c1nnc(C)n1-2 [JQ1] | – | – | inhibition of BET bromodomain proteins [3]: potent inhibitor |
| CCS(=O)(=O)Nc1ccc(Oc2ccc(F)cc2F)c(-c2cn(C)c(=O)c3[nH]ccc23)c1 [Mivebresib] | – | – | antileukemic effects (acute myeloid leukemia; patients with relapsed and refractory AML): showed antileukemic effects; tolerability (acute myeloid leukemia; phase 1 study, patients with solid tumors and AML): well tolerated |

Second part, led by results:

| IC50 [1] | IC50 (MV4-11 cells) | Structure (SMILES) | other results |
| --- | --- | --- | --- |
| 176 nM | 0.183 µM | CNc1nn(C)c2cc(C(=O)Nc3cc4[nH]c(CN5CCC[C@@H]5C)cc4cn3)ccc12 [Example 85] | – |
| 209 nM | 0.482 µM | C[C@H]1CCCN1Cc1cc2cnc(NC(=O)c3ccc4c(N(C)C)nn(C)c4c3)cc2[nH]1 [Example 86] | – |
| 210 nM | 0.134 µM | C[C@H]1CCCN1Cc1cc2cnc(NC(=O)c3ccc4c(c3)c(N)nn4C)cc2[nH]1 [Example 92] | – |
| 118 nM | 0.365 µM | COCCNc1nn(C)c2cc(C(=O)Nc3cc4[nH]c(CN5CCC[C@@H]5C)cc4cn3)ccc12 [Example 94, 3-[(2-methoxyethyl)amino]-1-methyl-N-(2-[[(2S)-2-methylpyrrolidin-1-yl]methyl]-1H-pyrrolo[3,2-c]pyridin-6-yl)indazole-6-carboxamide] | – |
| 160 nM | 0.704 µM | C[C@H]1CCCN1Cc1cc2cnc(NC(=O)c3ccc4c(NCC(F)F)nn(C)c4c3)cc2[nH]1 [Example 95, 3-[(2,2-difluoroethyl)amino]-1-methyl-N-(2-[[(2S)-2-methylpyrrolidin-1-yl]methyl]-1H-pyrrolo[3,2-c]pyridin-6-yl)indazole-6-carboxamide] | – |
